Data on two compounds can be found in patent US20090018189A1, “Hormone Sensitive Lipase Modulators And Methods Of Use” (DEVIRIS, priority 2007, published 2009).

SMILES strings stand for the structures.

The target of the assay is T1, recombinant HSL (Homo sapiens, UniProt Q05469).
T1 sequence (Q05469 1-1076): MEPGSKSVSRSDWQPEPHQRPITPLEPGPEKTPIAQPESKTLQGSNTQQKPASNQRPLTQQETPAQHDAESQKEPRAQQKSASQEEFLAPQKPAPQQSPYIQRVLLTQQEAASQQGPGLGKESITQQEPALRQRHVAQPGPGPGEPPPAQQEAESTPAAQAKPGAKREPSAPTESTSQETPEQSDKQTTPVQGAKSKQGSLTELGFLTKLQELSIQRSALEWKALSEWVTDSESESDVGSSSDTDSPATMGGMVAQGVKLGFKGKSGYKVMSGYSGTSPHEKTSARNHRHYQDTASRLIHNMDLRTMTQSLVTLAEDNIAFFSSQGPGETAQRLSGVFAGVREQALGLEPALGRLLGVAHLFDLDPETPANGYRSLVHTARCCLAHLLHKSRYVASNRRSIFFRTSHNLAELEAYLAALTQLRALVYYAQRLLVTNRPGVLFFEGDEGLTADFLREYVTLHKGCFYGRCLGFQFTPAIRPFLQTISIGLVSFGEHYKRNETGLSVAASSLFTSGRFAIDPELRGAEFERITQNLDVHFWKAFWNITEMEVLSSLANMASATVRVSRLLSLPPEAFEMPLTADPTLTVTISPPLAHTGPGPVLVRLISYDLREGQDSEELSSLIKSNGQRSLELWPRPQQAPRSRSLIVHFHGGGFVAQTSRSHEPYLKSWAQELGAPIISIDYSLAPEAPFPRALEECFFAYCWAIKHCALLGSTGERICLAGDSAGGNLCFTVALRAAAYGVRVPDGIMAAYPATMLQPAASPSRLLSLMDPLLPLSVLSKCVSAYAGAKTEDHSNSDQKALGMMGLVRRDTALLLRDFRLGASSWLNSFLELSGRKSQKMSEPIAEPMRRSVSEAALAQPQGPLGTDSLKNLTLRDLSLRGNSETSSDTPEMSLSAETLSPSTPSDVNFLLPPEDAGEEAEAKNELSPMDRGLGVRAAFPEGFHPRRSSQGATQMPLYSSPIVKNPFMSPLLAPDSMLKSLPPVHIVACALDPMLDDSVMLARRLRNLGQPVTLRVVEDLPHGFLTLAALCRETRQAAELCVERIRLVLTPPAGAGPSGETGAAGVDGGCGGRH
The assay is described as follows: Inhibition of recombinant HSL activity. The assay is classed as biochemical. The method, then: Compounds 1-7 were dissolved in 20% DMSO as 10 mg/mL stock, and used in assays with recombinant HSL to test for the potency for inhibiting HSL activity, the protocol for which is described in International Patent Application No. PCT/US07/00284, which is incorporated by reference in its entirety herein. Each compound's inhibitory effect on HSL is shown in FIG. 1 and 2, with Compound 1 having an IC50 of about 0.1 to about 0.2 mg/mL and Compound 5 showing about 40% inhibition at 0.4 mg/mL.

`CCN(CC)C(CC(=O)OCCc1ccc(O)cc1)CC(=O)OCc1ccccc1` (centres unmarked) [Compound 1]: the IC50 (compound stock 10 mg/mL in 20% DMSO, read-out: IC50 for inhibiting HSL activity) was in the range of 242 to 484 µM. For `COC(=O)C(=O)NC(CC(=O)NCCc1ccc(O)cc1)CC(=O)OCc1ccccc1` (centres unmarked) [Compound 5], the inhibition at 400 µg/mL (at 0.4 mg/mL) was about 40%.
